The values that follow come from US6426356B1, “Imidazoethyl thiophenes” (Ortho-McNeil Pharmaceutical, Inc., priority 1998, dated 2002).

In assay [1] the test system is mouse acetylcholine bromide-induced abdominal constriction. The assay can be described thus: Mouse acetylcholine bromide-induced abdominal constriction assay (MAIT). Format: in vivo. Conditions: po; % inhibition of abdominal constriction; dose not given. On the procedure: Mouse Acetylcholine Bromide-Induced Abdominal Constriction Assay (MAIT)
The mouse acetylcholine bromide-induced abdominal constriction assay, as described by Collier et al. in Brit. […] The test drugs or appropriate vehicle were administered orally (p.o.) and 30 minutes later the animal received an intraperitoneal (i.p.) injection of 5.5 mg/kg acetylcholine bromide (Matheson, Coleman and Bell, East Rutherford, N.J.). The mice were then placed in groups of three into glass bell jars and observed for a ten minute observation period for the occurrence of an abdominal constriction response (defined as a wave of constriction and elongation passing caudally along the abdominal wall, accompanied by a twisting of the trunk and followed by extension of the hind limbs). The percent inhibition of this response to a nociceptive stimulus (equated to % analgesia) was calculated as follows: The % Inhibition of response, i.e., % analgesia is equal to the difference between the number of control animals responding and the number of drug-treated animals responding times 100 divided by the number of control animals responding.
At least 15 animals were used for control and in each of the drug treated groups.

In assay [2] the target is T1, Alpha-2D Adrenergic Receptor (Rattus norvegicus, UniProt P22909).
T1 construct: aliquots of the synaptic membrane fraction, the ligand ^3H-para-aminoclonidine and test drug; from tissue; host or cells: rat brain cortex synaptic membrane fraction (male Wistar rats)
T1 sequence (P22909 1-465): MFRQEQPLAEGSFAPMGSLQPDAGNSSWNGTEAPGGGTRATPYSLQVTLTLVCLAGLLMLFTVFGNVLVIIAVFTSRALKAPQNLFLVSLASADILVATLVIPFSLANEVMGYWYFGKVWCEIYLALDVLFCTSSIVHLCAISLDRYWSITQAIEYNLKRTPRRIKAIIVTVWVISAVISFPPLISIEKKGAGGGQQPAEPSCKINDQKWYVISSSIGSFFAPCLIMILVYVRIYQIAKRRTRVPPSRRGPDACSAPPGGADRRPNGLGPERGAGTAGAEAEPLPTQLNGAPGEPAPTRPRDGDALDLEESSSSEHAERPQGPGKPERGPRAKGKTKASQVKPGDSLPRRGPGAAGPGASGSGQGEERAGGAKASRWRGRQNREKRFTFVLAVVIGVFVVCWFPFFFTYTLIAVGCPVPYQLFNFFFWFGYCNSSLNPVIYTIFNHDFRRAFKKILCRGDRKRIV
The assay can be described thus: Alpha-2D adrenergic receptor binding assay (3H-para-aminoclonidine, rat cortex synaptic membranes). Here is the method:
Alpha-2D Adrenergic Receptor Binding Assay
Male, Wistar rats (150-250 g, VAF, Charles River, Kingston, N.Y.) are sacrificed by cervical dislocation and their brains removed and placed immediately in ice cold HEPES buffered sucrose. The cortex is dissected out and homogenized in 20 volumes of HEPES sucrose in a Teflon™-glass homogenizer. The homogenate is centrifuged at 1000 g for 10 min, and the resulting supernatant centrifuged at 42,000 g for 10 min. The resulting pellet is resuspended in 30 volumes of 3 mM potassium phosphate buffer, pH 7.5, preincubated at 25 ° C. for 30 min and recentrifuged. The resulting pellet is resuspended as described above and used for the receptor binding assay. […] The incubation is terminated by filtration of the tube contents through glass fiber filter sheets. Following washing of the sheets with 10 mM HEPES buffer, the adhering radioactivity is quantified by liquid scintillation spectrometry.
Binding of the test drug to the receptor is determined by comparing the amount of radiolabeled ligand bound in control tubes without drug to the amount of radiolabeled ligand bound in the presence of the drug. Dose-response data are analyzed with LIGAND, a nonlinear curve fitting program designed specifically for the analysis of ligand binding data.

In assay [3] the test system is mouse acetylcholine bromide-induced abdominal constriction. The assay can be described thus: Mouse acetylcholine bromide-induced abdominal constriction assay (MAIT). It is filed as in vivo. As to conditions: sc; % inhibition of abdominal constriction; dose not given.
The mark [4] stands for this setting: 3H-para-aminoclonidine, rat cortex membranes, read-out: α2D Ki.

Read-outs that look alike come from different tables or passages of the source.

In assay [1], `Cc1ccsc1CCc1c[nH]cn1` [Cp-1] returned an MAIT of 93 po. In assay [2] (setting [4]), the Ki came out at 0.075 nM.

For `c1csc(CCc2c[nH]cn2)c1` [Cp-2], in assay [1], the MAIT is given as 60 po. Also, the Ki in assay [2] stood at 0.1 nM.

As for `c1nc(CCc2ccsc2)c[nH]1` [Cp-3], the MAIT in assay [1] is on record as 53 po. In addition, affinity in assay [2] was put at a Ki of 0.53 nM.

On to `Cc1ccc(CCc2c[nH]cn2)s1` [Cp-4], for which, in assay [1], the MAIT is given as 7 po. The same compound registered a Ki in assay [2] of 1.1 nM.

Turning to `CCc1sccc1CCc1c[nH]cn1` [Cp-5], in assay [1], the MAIT is listed as 67 po. Moreover, the Ki in assay [2] (setting [4]) stood at 1.8 nM.

Take `CCc1ccc(CCc2c[nH]cn2)s1` [Cp-6]: the MAIT in assay [1] came out at 20 po. In assay [2], the Ki was determined as 1.2 nM.

For `CCc1csc(CCc2c[nH]cn2)c1` [Cp-8], in assay [1], the MAIT came to 20 po. Also, the Ki in assay [2] amounted to 0.15 nM.

For the compound `Cc1ccc(/C=C/c2c[nH]cn2)s1` [Cp-12], the MAIT in assay [1] was determined as 7 po. Also, the Ki in assay [2] came out at 22 nM.

As for `Cc1ccsc1/C=C/c1c[nH]cn1` [Cp-13], the affinity in assay [2], expressed as Ki, was 3.2 nM.

In turn, `Clc1ccc(/C=C/c2c[nH]cn2)s1` [Cp-14] yielded an MAIT in assay [1] of 20 po. The compound also displayed a Ki in assay [2] of 17 nM.

In assay [1], `Brc1csc(C=Cc2c[nH]cn2)c1` [Cp-16] displayed an MAIT of 20 po. The compound also displayed a Ki in assay [2] of 31 nM.

As to `CCc1ccc(/C=C/c2c[nH]cn2)s1` [Cp-17], in assay [3], the MAIT is recorded as 13 sc. For the same compound, in assay [2], the Ki came to 22 nM.

Take `CCc1csc(C=Cc2c[nH]cn2)c1` [Cp-18]: the MAIT in assay [3] stood at 53 sc. This compound also had a Ki in assay [2] of 26 nM.
